Data from US7884071B2, “Administration form for pharmaceutically active peptides with sustained release and method for the production thereof” (Zentaris GmbH, priority 2002, dated 2011).
Structures can show the parent of a compound that is named as a salt. Where a SMILES comes first, the peptide text is derived from it. [ ]: non-standard residue; d: D form. dPhe(4-Cl) = N[C@H](Cc1ccc(Cl)cc1)C(=O)O; d2Nal = N[C@H](Cc1ccc2ccccc2c1)C(=O)O; d(hCit) = NC(=O)NCCCC[C@@H](N)C(=O)O; NMeY = CN[C@@H](Cc1ccc(O)cc1)C(=O)O; d3Pal = N[C@H](Cc1cccnc1)C(=O)O; Nle = CCCC[C@H](N)C(=O)O

Test: Fig. 6: Physicochemical data on D-63 153
Text: Table printed on a drawing sheet, Fig. 6
Title: Fig. 6: Physicochemical data on D-63 153
First reader's note: Unruled property list for a single peptide; the value of 'Structural formula:' is a chemical drawing and is left empty.

CCCC[C@H](NC(=O)[C@@H](CCCCNC(N)=O)NC(=O)[C@H](Cc1ccc(O)cc1)N(C)C(=O)[C@H](CO)NC(=O)[C@@H](Cc1cccnc1)NC(=O)[C@@H](Cc1ccc(Cl)cc1)NC(=O)[C@@H](Cc1ccc2ccccc2c1)NC(C)=O)C(=O)N[C@@H](CCCNC(=N)N)C(=O)N1CCC[C@H]1C(=O)N[C@H](C)C(N)=O [D-63153 (e.g. acetate salt), Ac-D-Nal(2)-D-Cpa-D-Pal(3)-Ser-N-Me-Tyr-D-Hci- Nle-Arg-Pro-D-Ala-NH2] (Ac-[d2Nal][dPhe(4-Cl)][d3Pal]S[NMeY][d(hCit)][Nle]RP[dA]-NH2)
Solubility:: 0.75 mg/ml in water
